Results on 4 compounds are retold here after PMC7925398, “Exploring the Therapeutic Potenital of the Leaderless Enterocins K1 and EJ97 in the Treatment of Vancomycin-Resistant Enterococcal Infection” (Frontiers in Microbiology, 2021).

Data set [1] relates to E. faecium wildtype and eep-mutant strains. The experiment in a line: Lysozyme tolerance MIC assay. In kind it is cell-based, Enterococcus faecium. As for the experimental part:
To test for lysozyme tolerance the wild type and mutant strains were grown over night and subjected to a standard MIC assay as previously described with twofold dilutions of lysozyme ([Holo et al., 1991]). In addition, a spot-on-lawn assay was performed with 10 μl 250 mg/ml lysozyme spotted on a lawn of cells.

The next data set deals with human erythrocytes. Briefly: Haemolysis assay. The method, then:
To assess the haemolytic effect whole blood was drawn from two healthy human volunteers, pooled and distributed in 1 ml aliquots. The aliquots were spun down at 1,000 × g for 5 min at 4°C to separate erythrocytes from plasma. The erythrocytes were washed three times with saline (0.9% NaCl) and resuspended in 100 μl saline. […] SDS in saline was added as a control, since bacteriocins were solved in saline. The samples were incubated at 37°C for 1 h and then spun down again to remove intact erythrocytes. The supernatant was measured for absorbance at 540 nm in order to measure degree of haemolysis. […] The experiment was repeated three times to allow for statistical analysis.
Whole human blood was mixed with each bacteriocin in saline to a final concentration of 1, 0.1, and 0.01 mg/ml. The samples were incubated at 37°C before the erythrocytes were spun down and the supernatant was read at OD540.

Data set [2] can be described thus: Antibacterial effect (MIC) after incubation in blood, plasma or saline. In kind it is cell-based. Conditions: for MIC in blood: 1 mg/ml added to whole human blood (EDTA). The method, then: To test whether the antibacterial effect of the bacteriocins was reduced in blood, an assay was performed where whole blood was collected from two healthy volunteers, with EDTA as an anticoagulant. Directly after blood sampling each bacteriocin was added to a concentration of 1mg/ml. […] Samples were collected at specific time points and bacteriocin activity was determined using the standard MIC assay as previously described ([Holo et al., 1991]). The experiment was repeated three times and the error bars represent the standard deviation.
The presented MIC values are the average of three experiments. Each bacteriocin was added to whole human blood to reach a concentration of 1 mg/ml. […] RT is short for room temperature.

The subject of data set [3] is bacteriocin-resistant enterococcal cells (eep-mutants). The settings on record: colonies from inhibition zones of spot-on-lawn assay; 'mostly above'; cross-resistant. As for the experimental part:
Bacteriocin resistant mutants were obtained by a spot-on-lawn assay, where liquid bacteriocin was spotted on a lawn of indicator cells, using 10μl of bacteriocin in concentrations 0.5–5 mg/ml. The plates were incubated at 30°C overnight and resistant colonies were selected from the inhibition zones and re-streaked on new plates for isolated colonies. Pure cultures were made and stored in 15% glycerol at −80°C. The eep gene was PCR amplified and sequenced with specific primers: eep in E. faecium was amplified using primers Eepf4F + Eepf4R and sequenced using primers Eepf1R - Eepf6R and Eepf1F - Eepf6F. eep in E. faecalis was amplified using primers Eepfa1R + Eepfa3F and sequenced using primers Eepfa1R - Eepfa3R, Eepf1R - Eepf3R and Eepfa1F - Eepfa3F.
The samples were sent to GATC Biotech, Germany for sequencing. MIC of the resistant mutants was scored using a microtiter assay as previously described ([Holo et al., 1991]).

For a further data set, the system named is E. faecium. The settings on record: three parallels. The method, then: Unless otherwise specified the bacterial strains were grown in brain heart infusion (BHI) medium (Oxoid) at 37°C under aerobic conditions without shaking.
The peptides were stored at −20°C until use. The amino acid sequences of the bacteriocins are […] RPVA and […] […] Bacteriocin activity was determined using a microtiter assay as previously described ([Holo et al., 1991]).

The test system of data set [4] is E. faecium LMGT 20705 and E. faecium 42 ACA-D6 0237. The experiment in a line: Effect of autoclaving on antibacterial activity, E. faecium. Format: cell-based, Enterococcus faecium. The settings on record: in MilliQ water with 0.1% TFA, standard autoclaving; MIC against E. faecium LMGT 20705 and 42 ACA-D6 0237. An excerpt: A pre-requisite for intravenous administration is complete sterility of the compound ([Paese et al., 2017]). The simplest manner to achieve this is through autoclaving. However, this can cause degradation of the compound and therefore be detrimental to the antibacterial effect. Also, if the compound is degraded into unknown constituents this may cause unintended interactions. Therefore, we exposed the bacteriocins to a standard autoclaving procedure.
Each bacteriocin was solved in MilliQ water with 0.1% TFA and then autoclaved. […] Strains: 20705 is short for E. faecium LMGT 20705; 0237 for E. faecium 42 ACA-D6 0237; D6 for E. faecalis D6; and MMH594 for E. faecalis MMH594.

Where [5] appears, read: starting value (time not given), average of three experiments.

Converted amounts (≈) assume the structure as drawn. Read-outs that look alike come from different tables or passages of the source. Where a SMILES comes first, the peptide text is derived from it.

With Lysozyme, the “Lysozyme MIC” value came out at 1950 µg/mL in data set [1] (E. faecium 7422c.522del (M, eep-mutant)); 1950 µg/mL in data set [1] (E. faecium 7422c.C64A (M, eep-mutant)); 15630 µg/mL in data set [1] (E. faecium E7422 (WT)); 15630 µg/mL in data set [1] (E. faecium P21 (WT), twofold dilutions of lysozyme); 980 µg/mL in data set [1] (E. faecium P21c.G716A (M, eep-mutant)); 980 µg/mL in data set [1] (E. faecium P21c.ins7 (M, eep-mutant)). Besides, the “Lysozyme MIC” value in data set [1] (E. faecium P21c.ins23 (M, eep-mutant)) came to 980 µg/mL; in data set [1] (E. faecium P21c.ins43 (M, eep-mutant)), 980 µg/mL. For the same compound, the “Lysozyme MIC, wildtype strains” value in data set [1] (wildtype strains P21 and E7422) stood at 15630 µg/mL.
As to `CCCCCCCCCCCCOS(=O)(=O)[O-].[Na+]` [SDS, reference compound], the “Visual haemolysis (redness of supernatant)” value with human erythrocytes is recorded as “complete haemolysis”.
`CC1(C)S[C@@H]2[C@H](NC(=O)[C@H](N)c3ccccc3)C(=O)N2[C@H]1C(=O)O` [Ampicillin, reference compound] returned an MIC in blood in data set [2] (setting [5]) of 1.56 µg/mL (≈ 4.46 µM). In data set [2] (48 h incubation at 37°C in blood and similar conditions), the “Loss of activity after 48 h incubation” value is “fourfold”.
On to `CC[C@H](C)[C@H](NC(=O)[C@H](CCC(=O)O)NC(=O)[C@H](Cc1ccc(O)cc1)NC(=O)[C@H](CCC(N)=O)NC(=O)[C@@H](NC(=O)[C@H](CC(C)C)NC(=O)[C@H](CCCCN)NC(=O)[C@H](CCCCN)NC(=O)[C@@H](NC(=O)[C@@H](NC(=O)[C@@H](NC(=O)CNC(=O)[C@@H](NC(=O)[C@@H]1CCCN1C(=O)[C@H](CC(N)=O)NC(=O)[C@H](Cc1ccccc1)NC(=O)[C@H](CCCCN)NC(=O)[C@H](Cc1ccccc1)NC(=O)[C@H](CCCCN)NC(=O)[C@@H](N)CCSC)[C@@H](C)O)[C@@H](C)O)[C@@H](C)CC)C(C)C)[C@@H](C)O)C(=O)N[C@@H](C)C(=O)N[C@@H](Cc1c[nH]c2ccccc12)C(=O)N[C@@H](Cc1ccccc1)C(=O)N[C@@H](CCCCN)C(=O)N[C@@H](CC(N)=O)C(=O)N[C@@H](CCCCN)C(=O)N[C@@H](Cc1c[nH]cn1)C(=O)NCC(=O)N[C@@H](Cc1ccc(O)cc1)C(=O)N[C@@H](Cc1ccc(O)cc1)C(=O)N1CCC[C@H]1C(=O)N[C@@H](Cc1c[nH]c2ccccc12)C(=O)N[C@@H](CCC(=O)O)C(=O)N[C@H](C(=O)N1CCC[C@H]1C(=O)N[C@@H](CCCNC(=N)N)C(=O)N[C@@H](CS)C(=O)O)[C@@H](C)CC` [EntK1, enterocin K1] (H-MKFKFNPTGTIVKKLTQYEIAWFKNKHGYYPWEIPRC-OH; N-terminus and C-terminus assumed), for which the “MIC against cells from resistant colonies” value in data set [3] was “above 25 μg/ml”. In addition, the “MIC of EntK1” value was 0.39 µg/mL in the data set with E. faecium (strain E1469 (N, nosocomial), MIC = at least 50% growth inhibition); 0.39 µg/mL with E. faecium (strain E3160 (N, nosocomial), MIC = at least 50% growth inhibition); 0.39 µg/mL with E. faecium (strain E3449 (N, nosocomial), MIC = at least 50% growth inhibition); 0.19 µg/mL in the data set with E. faecium (strain E6072 (N, nosocomial), MIC = at least 50% growth inhibition); 0.39 µg/mL in the data set on E. faecium (strain E6094 (N, nosocomial), MIC = at least 50% growth inhibition); 0.39 µg/mL with E. faecium (strain E6856 (N, nosocomial), MIC = at least 50% growth inhibition). The “MIC of EntK1” value in the data set with E. faecium (strain E7195 (N, nosocomial), MIC = at least 50% growth inhibition) was 0.39 µg/mL; in the data set on E. faecium (strain E7422 (N, nosocomial), MIC = at least 50% growth inhibition), 0.19 µg/mL; with E. faecium (strain E7660 (N, nosocomial), MIC = at least 50% growth inhibition), 0.39 µg/mL; in the data set on E. faecium (strain E8150 (N, nosocomial), MIC = at least 50% growth inhibition) it was 0.78 µg/mL; in the data set on E. faecium (strain LMGT 20705 (L, laboratory), MIC = at least 50% growth inhibition), below 0.048 µg/mL; in the data set on E. faecium (strain P21 (L, laboratory), MIC = minimum concentration inhibiting growth by at least 50% vs control, 200 μl culture) it was below 0.048 µg/mL. Besides, in the data set on human erythrocytes (1 mg/ml in saline, 37°C), the “Visual haemolysis (redness of supernatant compared to saline)” value is given as “did not cause haemolysis”. Besides, in the data set with human erythrocytes (0.01, 0.1 and 1 mg/ml in saline, washed human erythrocytes (two volunteers, pooled), 37°C, 1 h, supernatant absorbance 540 nm, repeated three times), the Haemolysis of erythrocytes entry is reported as “non-haemolytic”. Further, in data set [4], the “Effect of autoclaving on MIC” value is given as “did not affect”. Besides, the MIC in blood in data set [2] (setting [5]) came to 0.78 µg/mL (≈ 0.171 µM). The compound further gave an MIC in saline in data set [2] (1 mg/ml in saline, first value (time not given), indicator strain not stated, average of three experiments) of 0.19 µg/mL (≈ 0.0416 µM). In data set [2] (added to human plasma, starting value (time not given), average of three experiments), this compound returned an MIC in plasma of 0.78 µg/mL (≈ 0.171 µM). In data set [2] (human plasma, 8 h incubation at 37°C, average of three experiments), the “MIC in plasma after 8 h” value is 0.78 µg/mL (≈ 0.171 µM). The “MIC in plasma at 48 h” value in data set [2] (human plasma, 48 h incubation at 37°C, average of three experiments) amounted to 1.56 µg/mL (≈ 0.342 µM). Further, the “MIC in saline after 8 h” value in data set [2] (saline, 8 h incubation at 37°C, average of three experiments) was “stayed at the same level”. The “MIC in saline at 48 h” value in data set [2] (saline, 48 h incubation at 37°C, average of three experiments) turned out to be 0.39 µg/mL (≈ 0.0854 µM). In addition, the “MIC ratio blood to plasma” value in data set [2] (same at all time points, 37°C) is on record as 2 ×. Besides, in data set [2] (same at all time points, 37°C), the “MIC ratio plasma to saline” value worked out at 2 ×. For the same compound, in data set [2] (whole human blood (EDTA), 1 mg/ml, 8 h incubation at 37°C, average of three experiments), the “MIC in blood after 8 h” value is on record as “approximately 1.56 μg/ml”. In addition, the “MIC in blood at 48 h” value in data set [2] (whole human blood (EDTA), 1 mg/ml, 48 h incubation at 37°C, average of three experiments) worked out at 3.125 µg/mL (≈ 0.685 µM). For the same compound, in data set [2] (whole human blood vs saline, 37°C), the “MIC in blood compared to saline (fold higher)” value is on record as 4 ×.
